# “And” between values parts separate entries of the source, which are not always exact repeats. Equal entries are not always repeated.
# Tests used:
# [1] = Apparent permeability across apical to basolateral side in dog MDCKII-MDR1 cells at 2 uM incubated for 2.5 hrs by LC-MS/MS analysis; format: ADME, cell-based, Canis lupus familiaris, MDCK-MDR1; conditions: for Papp A→B at 2.5 h, 2 µM: MDCK-MDR1
# [2] = Efflux ratio of apparent permeability across basolateral to apical side over apical to basolateral side in dog MDCKII-MDR1 cells at 2 uM incubated for 2.5 hrs by LC-MS/MS analysis; format: ADME, cell-based, Canis lupus familiaris, MDCK-MDR1; conditions: for efflux ratio at 2.5 h, 2 µM: MDCK-MDR1; for Ratio: mdck-mdr1, 2.5 h, 2 µM, 2.5 h
# [3] = target: T1, Protein arginine N-methyltransferase 5 (Homo sapiens, UniProt O14744); assay: Inhibition of PRMT5 methyltransferase activity in MTAP knockout human HCT-116 cells assessed as inhibition of PRMT5- mediated SDMA modification level incubated for 96 hrs by Western blot analysis; format: cell-based
# T1 sequence (O14744 whole entry): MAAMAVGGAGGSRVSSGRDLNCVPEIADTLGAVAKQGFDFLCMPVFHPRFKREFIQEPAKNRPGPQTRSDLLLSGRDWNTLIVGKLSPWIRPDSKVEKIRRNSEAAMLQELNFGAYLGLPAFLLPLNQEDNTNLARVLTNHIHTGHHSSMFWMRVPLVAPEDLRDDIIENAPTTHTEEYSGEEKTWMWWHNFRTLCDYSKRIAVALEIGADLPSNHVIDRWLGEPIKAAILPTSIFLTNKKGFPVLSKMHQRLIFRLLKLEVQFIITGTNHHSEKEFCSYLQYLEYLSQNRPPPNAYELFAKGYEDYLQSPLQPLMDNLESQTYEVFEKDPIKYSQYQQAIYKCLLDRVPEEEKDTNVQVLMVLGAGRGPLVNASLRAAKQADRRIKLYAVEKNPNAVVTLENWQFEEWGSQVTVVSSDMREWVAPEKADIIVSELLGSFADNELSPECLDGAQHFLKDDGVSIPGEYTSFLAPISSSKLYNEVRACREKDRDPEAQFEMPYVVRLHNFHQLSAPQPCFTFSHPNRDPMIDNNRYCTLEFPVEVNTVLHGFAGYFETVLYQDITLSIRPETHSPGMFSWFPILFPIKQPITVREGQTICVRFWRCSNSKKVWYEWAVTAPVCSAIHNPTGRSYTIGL
# [4] = target: T1, Protein arginine N-methyltransferase 5; assay: Inhibition of PRMT5 methyltransferase activity in human HCT-116 cells expressing wild type MTAP assessed as inhibition of PRMT5- mediated SDMA modification level incubated for 96 hrs by Western blot analysis; format: cell-based
# [5] = test system: HCT-116; assay: Antiproliferative activity against MTAP knockout human HCT-116 cells assessed as reduction in cell viability incubated for 5 days followed by replacement with fresh medium containing compound and measured after 5 days by CTG assay; format: functional, cell-based
# [6] = test system: HCT-116; assay: Antiproliferative activity against human HCT-116 cells expressing wild type MTAP assessed as reduction in cell viability incubated for 5 days followed by replacement with fresh medium containing compound and measured after 5 days by CTG assay; format: functional, cell-based
# [7] = Intrinsic clearance in human hepatocytes; format: ADME, cell-based, Hepatocyte; conditions: read-out: CLH
# [8] = Intrinsic clearance in mouse hepatocytes; format: ADME, cell-based, Hepatocyte; conditions: read-out: CLH
# [9] = Total clearance in CD-1 mouse at 3 mg/kg, iv measured upto 24 hrs by LC-MS/MS analysis; format: ADME, organism-based; conditions: in vivo
# [10] = Volume of distribution at steady state in CD-1 mouse at 3 mg/kg, iv measured upto 24 hrs by LC-MS/MS analysis; format: ADME, organism-based; conditions: in vivo, read-out: Vdss
# [11] = Half life in CD-1 mouse at 3 mg/kg, iv measured upto 24 hrs by LC-MS/MS analysis; format: ADME, organism-based; conditions: in vivo
# [12] = Oral bioavailability in CD-1 mouse at 30 mg/kg administered via gavage measured upto 24 hrs by LC-MS/MS analysis; format: ADME, organism-based; conditions: in vivo
# [13] = target: T1, Protein arginine N-methyltransferase 5
# [14] = species on record: Homo sapiens; assay: Selectivity ratio of IC50 for inhibition of human PRMT5 co-complexed with MEP50 in absence of MTA to IC50 for inhibition of MTA-bound human PRMT5 co-complexed with MEP50
# [15] = target: T1, Protein arginine N-methyltransferase 5; remark: listed apart in the source
# [16] = Cmax in CD-1 mouse at 30 mg/kg, po administered via gavage measured upto 24 hrs by LC-MS/MS analysis; format: ADME, organism-based; parameters: route oral, dose 30 mg/kg, time <=24; conditions: in vivo
# [17] = AUCinfinity in CD-1 mouse at 30 mg/kg, po administered via gavage measured upto 24 hrs by LC-MS/MS analysis; format: ADME, organism-based; parameters: route oral, dose 30 mg/kg, time <=24; conditions: in vivo
# [18] = Total clearance in beagle dog at 2 mg/kg, iv measured upto 24 hrs by LC-MS/MS analysis; format: ADME, organism-based, Canis lupus familiaris; conditions: in vivo
# [19] = Volume of distribution at steady state in beagle dog at 2 mg/kg, iv measured upto 24 hrs by LC-MS/MS analysis; format: ADME, organism-based, Canis lupus familiaris; conditions: in vivo, read-out: Vdss
# [20] = Half life in beagle dog at 2 mg/kg, iv measured upto 24 hrs by LC-MS/MS analysis; format: ADME, organism-based, Canis lupus familiaris; conditions: in vivo
# [21] = Cmax in beagle dog at 10 mg/kg, po administered via gavage measured upto 24 hrs by LC-MS/MS analysis; format: ADME, organism-based, Canis lupus familiaris; parameters: route oral, dose 10 mg/kg, time <=24; conditions: in vivo
# [22] = AUCinfinity in beagle dog at 10 mg/kg, po administered via gavage measured upto 24 hrs by LC-MS/MS analysis; format: ADME, organism-based, Canis lupus familiaris; parameters: route oral, dose 10 mg/kg, time <=24; conditions: in vivo
# [23] = Oral bioavailability in beagle dog at 10 mg/kg administered via gavage measured upto 24 hrs by LC-MS/MS analysis; format: ADME, organism-based, Canis lupus familiaris; conditions: in vivo
# [24] = Total clearance in cynomolgus monkey at 2 mg/kg, iv measured upto 24 hrs by LC-MS/MS analysis; format: ADME, organism-based, Macaca fascicularis; conditions: in vivo
# [25] = Volume of distribution at steady state in cynomolgus monkey at 2 mg/kg, iv measured upto 24 hrs by LC-MS/MS analysis; format: ADME, organism-based, Macaca fascicularis; conditions: in vivo, read-out: Vdss
# [26] = Half life in cynomolgus monkey at 2 mg/kg, iv measured upto 24 hrs by LC-MS/MS analysis; format: ADME, organism-based, Macaca fascicularis; conditions: in vivo
# [27] = Oral bioavailability in cynomolgus monkey at 10 mg/kg administered via gavage measured upto 24 hrs by LC-MS/MS analysis; format: ADME, organism-based, Macaca fascicularis; conditions: in vivo
Compound,"Papp A→B at 2.5 h, 2 µM [1]","efflux ratio at 2.5 h, 2 µM [2]",IC50 [3],IC50 [4],IC50 [5],IC50 [6],CLint scaled [7],CLint scaled [8],IC50 [13],other results
Cn1ncc(-c2ccc3c(=O)[nH]nc(CN)c3c2)c1-c1cccc(Cl)c1C#N,0.7 ×10⁻⁶ cm/s,35,62 nM,8810 nM,544 nM,> 10000 nM,< 18 mL/min/kg,232 mL/min/kg,2000 nM,clearance [9]: 121 mL/min/kg; Vd [10]: 6.6 L/kg; half-life [11]: 1.3 h; bioavailability [12]: 12%
NCc1n[nH]c(=O)c2ccc(-c3ccccc3)cc12,–,–,–,–,–,–,–,–,–,Ratio IC50 [14]: 3
CCc1cccc(-c2c(-c3ccc4c(=O)[nH]nc(CN)c4c3)cnn2C)c1C#N,0.3 ×10⁻⁶ cm/s,35,79 nM,3210 nM,175 nM,> 10000 nM,18 mL/min/kg,523 mL/min/kg,2000 nM,–
NCc1n[nH]c(=O)c2ccc(-c3ccccn3)cc12,9.3 ×10⁻⁶ cm/s,1.2,–,–,–,–,–,–,95800 nM,IC50 [15]: > 100000 nM
Cn1ncc(-c2ccc3c(=O)[nH]nc(CN)c3c2)c1-c1cc2ccccc2cc1C#N,0.5 ×10⁻⁶ cm/s,31,118 nM,–,264 nM,5090 nM,< 18 mL/min/kg,212 mL/min/kg,–,–
NCc1n[nH]c(=O)c2ccc(-c3cccnc3)cc12,2.8 ×10⁻⁶ cm/s,0.7,–,–,–,–,–,–,910 nM,Ratio IC50 [14]: 21; IC50 [15]: 19000 nM
Cc1ccc(-c2ccc3c(=O)[nH]nc(CN)c3c2)cn1,4.7 ×10⁻⁶ cm/s,3.5,–,–,–,–,–,–,5800 nM,Ratio IC50 [14]: 12; IC50 [15]: 69000 nM
Cn1ncc(-c2ccc3c(=O)[nH]nc(CN)c3c2)c1-c1ccccc1,1.5 ×10⁻⁶ cm/s,20,2470 nM,9810 nM,3650 nM,4060 nM,23 mL/min/kg,123 mL/min/kg,3000 nM,–
NCc1n[nH]c(=O)c2ccc(-c3cncs3)cc12,14.6 ×10⁻⁶ cm/s,0.6,–,–,–,–,–,–,–,–
Cn1ncc(-c2ccc3c(=O)[nH]nc(CN)c3c2)c1-c1c(F)cc2ccccc2c1C#N,0.4 ×10⁻⁶ cm/s,85,–,569 nM and > 1000 nM,–,1020 nM and 5930 nM,18 mL/min/kg,255 mL/min/kg,–,"Papp ([1]; mdck-mdr1, 2.5 h, 2 µM, 2.5 h): 0.3 ×10⁻⁶ cm/s; Ratio [2]: 136; clearance [9]: 78 mL/min/kg; Vd [10]: 5.3 L/kg; half-life [11]: 1.5 h; Cmax [16]: 590 ng/mL; AUC(0-inf) [17]: 2730 ng·h/mL; bioavailability [12]: 34%; clearance [18]: 21 mL/min/kg; Vd [19]: 4.4 L/kg; half-life [20]: 3.9 h; Cmax [21]: 880 ng/mL; AUC(0-inf) [22]: 4800 ng·h/mL; bioavailability [23]: 60%; clearance [24]: 24 mL/min/kg; Vd [25]: 3.3 L/kg; half-life [26]: 2.6 h; bioavailability [27]: 28%"
Cn1ncc(-c2ccc3c(=O)[nH]nc(CN)c3c2)c1-c1c(Cl)ccc(OC2CC2)c1C#N,0.3 ×10⁻⁶ cm/s,131,11 nM,> 1000 nM,91 nM,1650 nM,< 18 mL/min/kg,332 mL/min/kg,–,–
Cn1ncc(-c2ccc3c(=O)[nH]nc(CN)c3c2)c1-c1c(F)ccc(OC2CC2)c1C#N,0.2 ×10⁻⁶ cm/s,143,–,1050 nM and 4480 nM,43 nM and 17 nM and 112 nM,2180 nM and 3620 nM and 4210 nM,18 mL/min/kg,143 mL/min/kg,–,Ratio [2]: 123 and 150
CC(C)n1cc(-c2ccc3c(=O)[nH]nc(CN)c3c2)cn1,1.31 ×10⁻⁶ cm/s,20.1,–,–,–,–,–,–,670 nM,Ratio IC50 [14]: 17; IC50 [15]: 11400 nM
CC(=O)N1CCC(Nc2cc(C(=O)NC[C@H](O)CN3CCc4ccccc4C3)ncn2)CC1 [PEMRAMETOSTAT],–,–,–,–,189 nM,237 nM,–,–,–,–
Cc1cccc(-c2c(-c3ccc4c(=O)[nH]nc(CN)c4c3)cnn2C)c1C#N,0.6 ×10⁻⁶ cm/s,36,101 nM,8830 nM,365 nM,> 10000 nM,29 mL/min/kg,296 mL/min/kg,3000 nM,–

# Source: ChEMBL document CHEMBL5046262, “Fragment-Based Discovery of MRTX1719, a Synthetic Lethal Inhibitor of the PRMT5•MTA Complex for the Treatment of MTAP-Deleted Cancers” (J Med Chem, 2022)
